Data published in publication PMC10343299, “S-Ethyl-Isothiocitrullin-Based Dipeptides and 1,2,4-Oxadiazole Pseudo-Dipeptides: Solid Phase Synthesis and Evaluation as NO Synthase Inhibitors” (Molecules, 2023).
Read-outs that look alike come from different tables or passages of the source.

Columns and labels:
[1] = biological target: T1, rat nNOS (Rattus norvegicus, UniProt P29476); assay: NOS inhibition, oxyhemoglobin (hemoglobin capture) test, recombinant nNOS; format: biochemical
T1 construct: Full-length recombinant rat nNOS, mouse iNOS, bovine eNOS; made in house; host or cells: Escherichia coli
Description: (§1) The inhibitory effects of all compounds against the three recombinant NOSs (rat nNOS, mouse iNOS, and bovine eNOS) were evaluated in 96-well plates using the oxyhemoglobin test. A first screening at 100 and 10 μM was performed, and the IC50 values were measured for compounds showing more than 50% inhibition at 100 μM (Table 1 and Table 2).
(§2) Full-length recombinant rat nNOS, mouse iNOS, bovine eNOS, and the heme domains of rat brain nNOS and mouse iNOS were expressed in Escherichia coli and purified as described previously.
(§3) NOS catalytic activity was measured using the hemoglobin capture assay. The test was performed at 30 °C in 96-well microplates using a final volume of 200 µL. The assay mixture contained 100 µM NADPH, 10 µM BH4, 6 µM HbO2, 100 µM DTT, 5 µM FAD, 5 µM FMN, 10 µM (nNOS and eNOS), or 20 µM (iNOS) arginine, all in a 100 mM Hepes buffer, pH 7.5, and, for constitutive n- and e-NOS, 10 µg/mL calmodulin, and 1 mM CaCl2. The studied compounds were introduced as 2 μL of ×100 concentrated solutions in DMSO, and the control experiments were performed with DMSO or the buffer only. The kinetics of NO production were measured at 401 nm using an Infinite F500 microplate reader (Tecan, Singapore).

[2] = biological target: T2, bovine eNOS (Bos taurus, UniProt P29473); assay: NOS inhibition, oxyhemoglobin (hemoglobin capture) test, recombinant eNOS; format: biochemical; conditions: recombinant enzyme, 10 µM arginine, triplicate, NI = <50% inhibition at 100 μM; for inhibition at 100 µM: read-out: IC50 (μM) eNOS (Bovine)
T2 construct: Full-length recombinant rat nNOS, mouse iNOS, bovine eNOS; made in house; host or cells: Escherichia coli

[3] = biological target: T3, mouse iNOS (Mus musculus, UniProt P29477); assay: NOS inhibition, oxyhemoglobin (hemoglobin capture) test, recombinant iNOS; format: biochemical; conditions: recombinant enzyme, 20 µM arginine, triplicate, NI = <50% inhibition at 100 μM
T3 construct: Full-length recombinant rat nNOS, mouse iNOS, bovine eNOS; made in house; host or cells: Escherichia coli
T3 sequence (P29477 1-1144): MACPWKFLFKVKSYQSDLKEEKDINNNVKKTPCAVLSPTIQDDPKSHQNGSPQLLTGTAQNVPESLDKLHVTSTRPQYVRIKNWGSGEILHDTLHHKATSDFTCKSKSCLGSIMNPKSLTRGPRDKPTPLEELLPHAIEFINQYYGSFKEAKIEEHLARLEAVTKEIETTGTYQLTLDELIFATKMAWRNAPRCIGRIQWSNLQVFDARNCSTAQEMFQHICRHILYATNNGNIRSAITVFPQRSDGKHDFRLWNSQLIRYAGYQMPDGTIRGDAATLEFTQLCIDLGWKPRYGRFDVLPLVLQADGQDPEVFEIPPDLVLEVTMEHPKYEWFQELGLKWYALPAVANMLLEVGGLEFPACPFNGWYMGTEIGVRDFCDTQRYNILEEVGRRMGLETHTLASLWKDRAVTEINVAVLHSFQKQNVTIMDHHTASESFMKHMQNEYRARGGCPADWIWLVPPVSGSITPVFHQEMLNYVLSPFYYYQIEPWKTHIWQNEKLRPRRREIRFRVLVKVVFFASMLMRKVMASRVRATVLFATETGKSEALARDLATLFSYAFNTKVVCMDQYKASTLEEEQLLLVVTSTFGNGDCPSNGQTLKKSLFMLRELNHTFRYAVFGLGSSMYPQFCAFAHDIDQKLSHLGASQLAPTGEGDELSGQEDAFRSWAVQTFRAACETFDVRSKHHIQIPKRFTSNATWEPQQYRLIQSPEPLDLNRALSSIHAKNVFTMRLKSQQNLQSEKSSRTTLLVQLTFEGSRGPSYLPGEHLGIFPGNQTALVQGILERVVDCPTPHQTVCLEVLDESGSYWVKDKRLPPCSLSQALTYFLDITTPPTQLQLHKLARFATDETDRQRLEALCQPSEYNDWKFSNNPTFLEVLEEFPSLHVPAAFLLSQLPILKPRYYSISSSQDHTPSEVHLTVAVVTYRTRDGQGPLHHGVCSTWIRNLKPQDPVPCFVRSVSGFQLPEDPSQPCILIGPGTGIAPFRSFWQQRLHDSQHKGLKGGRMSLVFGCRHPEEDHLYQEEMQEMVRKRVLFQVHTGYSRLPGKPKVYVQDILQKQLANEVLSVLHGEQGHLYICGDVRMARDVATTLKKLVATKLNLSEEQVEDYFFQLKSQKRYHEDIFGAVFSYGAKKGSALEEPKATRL
Description: as §1, §2, §3

[4] = tested on: RAW 264.7 cells; assay: Cell viability, MTT assay; format: cell-based, murine; conditions: for Effect on cell viability (MTT): up to 100 μM
Description: Cell viability was evaluated in the murine macrophage RAW 264.7 cells using an MTT assay for compounds 18, 21, 26, and 30. This experiment was performed without or with LPS (1 µg/mL), which induces iNOS expression (Figure S1). […] Compound 30 only killed 20% of the cells at 500 μM (Figure S1A). In the presence of LPS (1 µg/mL), cell viability was reduced by 30% due to the inhibition by NO of key enzymes involved in cell metabolism (Figure S1B).
The macrophage cell line RAW 264.7 (a gift from Dr. A. Blangy, Montpellier, France) was cultured in Dulbecco’s Modified Eagle’s Medium (DMEM) supplemented with 10% FCS, 100 units/mL penicillin, 100 µg/mL streptomycin, and 2 mM L-glutamine.
Cellular NO production was measured using the Griess reagent (Sigma-Aldrich), which evaluates the nitrite content in culture media. Cellular toxicity was estimated by the MTT assay (Sigma-Aldrich) in RAW 264.7 cells after the induction (or not) of iNOS by LPS, according to the manufacturer’s recommendations.

[5] = dipeptide-like series, recombinant enzyme, 10 µM arginine, triplicate, NI = <50% inhibition at 100 μM
[6] = 1,2,4-oxadiazole series, recombinant enzyme, 10 µM arginine, triplicate, NI = <50% inhibition at 100 μM

T2 sequence (P29473 whole entry): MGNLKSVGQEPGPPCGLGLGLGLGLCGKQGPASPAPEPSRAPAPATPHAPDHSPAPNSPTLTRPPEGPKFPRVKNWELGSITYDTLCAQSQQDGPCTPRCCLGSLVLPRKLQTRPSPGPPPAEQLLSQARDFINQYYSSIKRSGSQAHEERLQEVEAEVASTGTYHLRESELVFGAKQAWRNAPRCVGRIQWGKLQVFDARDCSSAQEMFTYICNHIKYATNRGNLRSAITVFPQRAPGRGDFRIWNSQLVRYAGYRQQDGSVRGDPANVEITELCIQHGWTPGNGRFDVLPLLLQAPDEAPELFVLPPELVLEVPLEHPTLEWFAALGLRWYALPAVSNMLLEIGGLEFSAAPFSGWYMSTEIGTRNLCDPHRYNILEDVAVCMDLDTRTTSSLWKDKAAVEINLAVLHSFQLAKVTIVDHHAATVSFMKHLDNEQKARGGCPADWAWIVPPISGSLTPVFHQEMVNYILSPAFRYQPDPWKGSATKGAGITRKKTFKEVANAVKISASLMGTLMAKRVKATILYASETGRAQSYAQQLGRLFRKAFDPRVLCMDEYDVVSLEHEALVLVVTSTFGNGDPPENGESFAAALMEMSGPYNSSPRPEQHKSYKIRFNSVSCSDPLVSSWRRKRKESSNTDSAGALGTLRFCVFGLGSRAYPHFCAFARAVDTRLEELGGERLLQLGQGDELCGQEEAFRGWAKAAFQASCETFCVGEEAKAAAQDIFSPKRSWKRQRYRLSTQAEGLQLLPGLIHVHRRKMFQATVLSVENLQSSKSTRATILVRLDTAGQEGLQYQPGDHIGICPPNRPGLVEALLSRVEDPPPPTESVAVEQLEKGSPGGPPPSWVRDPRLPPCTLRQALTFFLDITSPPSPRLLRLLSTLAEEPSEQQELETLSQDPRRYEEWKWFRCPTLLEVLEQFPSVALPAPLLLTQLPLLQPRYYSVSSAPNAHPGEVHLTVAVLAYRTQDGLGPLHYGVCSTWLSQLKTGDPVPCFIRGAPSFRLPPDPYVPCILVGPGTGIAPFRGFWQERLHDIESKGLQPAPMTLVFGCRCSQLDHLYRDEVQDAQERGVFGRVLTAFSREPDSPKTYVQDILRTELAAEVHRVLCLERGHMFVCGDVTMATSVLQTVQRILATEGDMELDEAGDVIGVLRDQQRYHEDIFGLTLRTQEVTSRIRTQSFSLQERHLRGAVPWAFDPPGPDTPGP
T1 sequence (P29476 whole entry): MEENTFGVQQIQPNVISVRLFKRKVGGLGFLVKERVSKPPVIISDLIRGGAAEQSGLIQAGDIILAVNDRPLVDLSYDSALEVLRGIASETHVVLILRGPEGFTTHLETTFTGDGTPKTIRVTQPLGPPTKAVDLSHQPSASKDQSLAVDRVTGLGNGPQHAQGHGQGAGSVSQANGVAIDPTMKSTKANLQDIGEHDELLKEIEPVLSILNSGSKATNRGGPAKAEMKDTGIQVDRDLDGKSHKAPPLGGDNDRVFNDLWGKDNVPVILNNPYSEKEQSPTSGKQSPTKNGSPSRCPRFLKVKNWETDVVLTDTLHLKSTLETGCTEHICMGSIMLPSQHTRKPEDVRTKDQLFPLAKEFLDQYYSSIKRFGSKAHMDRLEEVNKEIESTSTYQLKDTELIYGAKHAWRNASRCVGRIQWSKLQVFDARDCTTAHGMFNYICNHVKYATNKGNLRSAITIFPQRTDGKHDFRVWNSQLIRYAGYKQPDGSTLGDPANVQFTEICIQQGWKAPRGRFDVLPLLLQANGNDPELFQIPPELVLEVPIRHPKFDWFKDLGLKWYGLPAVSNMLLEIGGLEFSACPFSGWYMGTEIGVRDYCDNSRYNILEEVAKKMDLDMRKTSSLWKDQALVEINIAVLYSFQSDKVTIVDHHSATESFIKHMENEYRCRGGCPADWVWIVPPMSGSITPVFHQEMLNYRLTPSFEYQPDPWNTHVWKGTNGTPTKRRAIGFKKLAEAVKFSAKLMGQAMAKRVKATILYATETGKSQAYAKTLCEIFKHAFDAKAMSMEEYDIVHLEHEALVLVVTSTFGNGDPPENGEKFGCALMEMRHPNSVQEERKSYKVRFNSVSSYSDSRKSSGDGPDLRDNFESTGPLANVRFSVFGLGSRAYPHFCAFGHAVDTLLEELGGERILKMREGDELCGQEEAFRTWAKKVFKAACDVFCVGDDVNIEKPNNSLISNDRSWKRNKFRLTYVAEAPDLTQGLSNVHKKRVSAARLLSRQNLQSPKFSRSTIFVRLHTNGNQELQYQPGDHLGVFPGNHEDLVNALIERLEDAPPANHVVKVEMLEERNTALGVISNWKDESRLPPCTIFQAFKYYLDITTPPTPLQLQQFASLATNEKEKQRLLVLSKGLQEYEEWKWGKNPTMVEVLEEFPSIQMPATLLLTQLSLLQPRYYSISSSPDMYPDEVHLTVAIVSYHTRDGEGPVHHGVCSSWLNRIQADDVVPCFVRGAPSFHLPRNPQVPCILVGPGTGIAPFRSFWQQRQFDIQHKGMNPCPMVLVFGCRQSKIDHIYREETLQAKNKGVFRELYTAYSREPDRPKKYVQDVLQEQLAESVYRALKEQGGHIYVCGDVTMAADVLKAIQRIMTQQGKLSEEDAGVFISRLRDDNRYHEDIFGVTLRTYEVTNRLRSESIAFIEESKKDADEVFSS

Structure (SMILES) | IC50 [1, 5] | inhibition at 100 µM ([2]; dipeptide-like series) | IC50 ([3]; dipeptide-like series) | IC50 [1, 6] | IC50 ([3]; 1,2,4-oxadiazole series) | also measured
CCSC(=N)NCCC[C@H](N)C(=O)N[C@@H]1CCCN(Cc2ccccc2)C1 [Compound 8] | 15.6 µM | < 50% | 25.6 µM |  |  | 
CCSC(=N)NCCC[C@H](N)C(=O)N[C@H]1CCCN(Cc2ccccc2O)C1 [Compound 9] | 51.1 µM | < 50% | 51 µM |  |  | 
CCSC(=N)NCCC[C@H](N)C(=O)N[C@H]1CCCN(Cc2cc(O)ccc2O)C1 [Compound 10] | 2 µM |  | 23.9 µM |  |  | IC50 ([2]; dipeptide-like series): 26.7 µM
CCSC(=N)NCCC[C@H](N)C(=O)N[C@H]1CCCN(Cc2ccccc2[N+](=O)[O-])C1 [Compound 12] |  | < 50% | 46 µM |  |  | inhibition at 100 µM ([1]; dipeptide-like series, recombinant enzyme, 10 µM arginine, triplicate, NI = <50% inhibition at 100 μM, read-out: IC50 (μM) nNOS (Rat)): < 50%
CCSC(=N)NCCC[C@H](N)C(=O)N[C@@H]1CCCN(Cc2ccccc2[N+](=O)[O-])C1 [Compound 13] | 30.6 µM | < 50% | 78.9 µM |  |  | 
CCSC(=N)NCCC[C@H](N)C(=O)N[C@H]1CCCN(Cc2cc(OC)c(OC)c(OC)c2)C1 [Compound 16] | 49.6 µM | < 50% | 54.9 µM |  |  | 
CCSC(=N)NCCC[C@H](N)C(=O)N[C@H]1CCCN(Cc2cccc(C(F)(F)F)c2)C1 [Compound 20] | 15.4 µM | < 50% |  |  |  | inhibition at 100 µM ([3]; dipeptide-like series, read-out: IC50 (μM) iNOS (Mouse)): < 50%
CCSC(=N)NCCC[C@H](N)C(=O)N[C@H]1CCCN(Cc2cccc(-c3ccccc3)c2)C1 [Compound 25] | 2.8 µM | < 50% | 36.5 µM |  |  | 
CCSC(=N)NCCC[C@H](N)c1nc(CCN)no1 [Compound 28] |  |  |  | 58.9 µM | 83.7 µM | inhibition at 100 µM ([2]; 1,2,4-oxadiazole series): < 50%
CCSC(=N)NCCC[C@H](N)c1nc(CCNCc2ccccc2)no1 [Compound 29] |  |  |  | 13.4 µM | 11.1 µM | IC50 ([2]; 1,2,4-oxadiazole series): 17.9 µM
CCSC(=N)NCCC[C@H](N)c1nc(CCNCc2c(C)cccc2C)no1 [Compound 32] |  |  |  | 60.1 µM | 51.6 µM | 
CCSC(=N)NCCC[C@H](N)c1nc(CCN(Cc2ccc([N+](=O)[O-])cc2)Cc2ccc([N+](=O)[O-])cc2)no1 [Compound 37] |  |  |  | 0.3 µM | 15.8 µM | Selectivity for nNOS against eNOS ([1]; from IC50 values): ~40 fold; Selectivity for nNOS against iNOS ([1]; from IC50 values): ~50 fold; Gain in nNOS inhibition potency over non-substituted compound 28 ([1]; times more potent than 28): 200; IC50 ([2]; 1,2,4-oxadiazole series): 11.8 µM
CCSC(=N)NCCC[C@H](N)c1nc(CCNCc2ccccc2[N+](=O)[O-])no1 [Compound 39] |  |  |  | 27 µM | 8 µM | IC50 ([2]; 1,2,4-oxadiazole series): 48.2 µM
CCSC(=N)NCCC[C@H](N)c1nc(CCNCc2cc(O)ccc2[N+](=O)[O-])no1 [Compound 41] |  |  |  | 3 µM | 36.3 µM | 
CCSC(=N)NCCC[C@H](N)c1nc(CCN(Cc2cc(O)ccc2[N+](=O)[O-])Cc2cc(O)ccc2[N+](=O)[O-])no1 [Compound 42] |  |  |  | 1.1 µM | 7 µM | inhibition at 100 µM ([2]; 1,2,4-oxadiazole series): < 50%

Continued, in another order:

IC50 [1, 5] | inhibition at 100 µM ([2]; dipeptide-like series) | IC50 ([3]; dipeptide-like series) | IC50 [1, 6] | IC50 ([3]; 1,2,4-oxadiazole series) | Structure (SMILES) | also measured
 |  | 73.4 µM |  |  | CCSC(=N)NCCC[C@H](N)C(=O)N[C@@H]1CCCN(Cc2cc(O)ccc2O)C1 [Compound 11] | IC50 ([2]; dipeptide-like series): 25.4 µM
25.2 µM | < 50% | 31.3 µM |  |  | CCSC(=N)NCCC[C@H](N)C(=O)N[C@H]1CCCN(Cc2cc(O)ccc2[N+](=O)[O-])C1 [Compound 15] | 
3.5 µM |  | 21.6 µM |  |  | CCSC(=N)NCCC[C@H](N)C(=O)N[C@H]1CCCN(Cc2ccc(-c3cccc([N+](=O)[O-])c3)cc2)C1 [Compound 24] | IC50 ([2]; dipeptide-like series): 18 µM
1.3 µM | < 50% | 48.3 µM |  |  | CCSC(=N)NCCC[C@H](N)C(=O)N[C@H]1CCCN(Cc2cccc(-c3cccc([N+](=O)[O-])c3)c2)C1 [Compound 26] | Reversal of LPS-induced reduction of cell viability ([4]; RAW 264.7, LPS 1 µg/mL): none partially reversed the LPS effect; Effect on cell viability (MTT) ([4]; RAW 264.7, absence of LPS): fully toxic
 |  |  | 1.6 µM | 1.3 µM | CCSC(=N)NCCC[C@H](N)c1nc(CCN(Cc2ccccc2)Cc2ccccc2)no1 [Compound 30] | Cells killed ([4]; RAW 264.7, absence of LPS, 500 μM): 20%; Effect on cell viability (MTT) ([4]; RAW 264.7, absence of LPS): did not modify cell viability; IC50 ([2]; 1,2,4-oxadiazole series): 99.6 µM
 |  |  | 9.9 µM | 11.1 µM | CCSC(=N)NCCC[C@H](N)c1nc(CCN(Cc2ccccc2C)Cc2ccccc2C)no1 [Compound 31] | inhibition at 100 µM ([2]; 1,2,4-oxadiazole series): < 50%
 |  |  | 10.1 µM | 71.5 µM | CCSC(=N)NCCC[C@H](N)c1nc(CCN(Cc2c(C)cccc2C)Cc2c(C)cccc2C)no1 [Compound 33] | inhibition at 100 µM ([2]; 1,2,4-oxadiazole series): < 50%
 |  |  | 1.4 µM | 4 µM | CCSC(=N)NCCC[C@H](N)c1nc(CCN(Cc2cccc3ccccc23)Cc2cccc3ccccc23)no1 [Compound 34] | inhibition at 100 µM ([2]; 1,2,4-oxadiazole series): < 50%
 |  |  | 3.1 µM | 24.3 µM | CCSC(=N)NCCC[C@H](N)c1nc(CCN(Cc2ccccc2O)Cc2ccccc2O)no1 [Compound 36] | IC50 ([2]; 1,2,4-oxadiazole series): 20.2 µM
 |  |  | 0.6 µM | 15.9 µM | CCSC(=N)NCCC[C@H](N)c1nc(CCN(Cc2cccc([N+](=O)[O-])c2)Cc2cccc([N+](=O)[O-])c2)no1 [Compound 38] | IC50 ([2]; 1,2,4-oxadiazole series): 3.9 µM
